Where “and” joins values, the source holds several entries; their conditions need not be identical. Equal values may be shown once. Calls of active or inactive are those of the source. The rule behind the calls is not given here.
Tests used:
[1] = Antioxidant activity assessed as DPPH radical scavenging activity incubated for 30 mins; type: functional
[2] = Antioxidant activity assessed as ABTS radical scavenging activity; type: functional
[3] = Inhibition of alpha-glucosidase (unknown origin); design: species or system Homo sapiens
[4] = molecular target: T1, Acetylcholinesterase (Homo sapiens, UniProt P22303); assay: Inhibition of AChE (unknown origin)
T1 sequence (P22303 whole entry): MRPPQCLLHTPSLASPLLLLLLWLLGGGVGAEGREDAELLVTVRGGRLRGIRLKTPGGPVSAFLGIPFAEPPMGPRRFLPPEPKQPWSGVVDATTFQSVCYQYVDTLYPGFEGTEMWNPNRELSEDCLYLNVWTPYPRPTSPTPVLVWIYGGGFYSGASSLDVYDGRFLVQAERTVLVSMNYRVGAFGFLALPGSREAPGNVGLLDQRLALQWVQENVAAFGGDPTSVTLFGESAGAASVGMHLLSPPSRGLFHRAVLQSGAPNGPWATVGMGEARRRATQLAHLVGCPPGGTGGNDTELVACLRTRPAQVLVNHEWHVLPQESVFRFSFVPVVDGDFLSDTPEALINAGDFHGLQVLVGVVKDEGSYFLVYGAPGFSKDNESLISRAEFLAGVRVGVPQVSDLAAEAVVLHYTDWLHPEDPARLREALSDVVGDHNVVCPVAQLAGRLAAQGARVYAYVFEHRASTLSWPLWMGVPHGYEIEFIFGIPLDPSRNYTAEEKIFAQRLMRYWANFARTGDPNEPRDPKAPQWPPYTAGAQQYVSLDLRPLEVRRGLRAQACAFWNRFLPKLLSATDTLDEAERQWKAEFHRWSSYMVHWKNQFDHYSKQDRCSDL

[5] = molecular target: Cholinesterase (Homo sapiens, UniProt P06276); assay: Inhibition of BchE (unknown origin)
Cholinesterase, sequence (P06276 whole entry): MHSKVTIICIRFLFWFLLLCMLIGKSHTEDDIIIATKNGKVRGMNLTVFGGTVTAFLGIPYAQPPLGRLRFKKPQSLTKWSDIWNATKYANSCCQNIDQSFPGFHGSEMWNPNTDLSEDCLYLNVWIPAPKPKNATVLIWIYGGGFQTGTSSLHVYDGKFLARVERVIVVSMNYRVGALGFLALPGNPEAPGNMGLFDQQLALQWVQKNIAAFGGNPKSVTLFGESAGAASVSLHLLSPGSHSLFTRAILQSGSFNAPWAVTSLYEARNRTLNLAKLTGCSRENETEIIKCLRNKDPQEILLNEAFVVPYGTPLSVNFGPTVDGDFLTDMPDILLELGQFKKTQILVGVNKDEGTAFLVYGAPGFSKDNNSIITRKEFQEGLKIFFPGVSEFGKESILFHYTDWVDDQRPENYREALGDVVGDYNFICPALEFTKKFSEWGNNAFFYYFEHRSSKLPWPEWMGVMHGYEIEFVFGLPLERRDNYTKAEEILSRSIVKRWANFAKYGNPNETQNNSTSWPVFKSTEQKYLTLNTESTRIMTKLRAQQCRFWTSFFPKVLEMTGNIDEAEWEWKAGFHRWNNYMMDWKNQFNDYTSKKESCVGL

[6] = Acute toxicity in BALB/c mouse upto 100 mg/kg, ip administered for 72 hrs and measured after 14 days; type: organism-based; details: in vivo, 408 h, time 17 day
[7] = system: Rattus norvegicus; assay: Anti-diabetic activity in STZ-induced diabetic Sprague-Dawley rat model assessed as change in blood glucose level at 9 mg/kg, ip measured for 28 days; type: functional, organism-based; details: time 28.0 day
[8] = system: Rattus norvegicus; assay: Anti-diabetic activity in STZ-induced diabetic Sprague-Dawley rat model assessed as reduction in blood glucose level at 9 mg/kg, ip measured at day 1 (reference value: 494.14 +/- 4.15 mg/dl); type: functional; details: time 1 day
[9] = system: Rattus norvegicus; assay: Anti-diabetic activity in STZ-induced diabetic Sprague-Dawley rat model assessed as reduction in blood glucose level at 9 mg/kg, ip measured at day 7 (reference value: 490.69 +/- 3.98 mg/dl); type: functional; details: time 7 day
[10] = system: Rattus norvegicus; assay: Anti-diabetic activity in STZ-induced diabetic Sprague-Dawley rat model assessed as reduction in blood glucose level at 9 mg/kg, ip measured at day 14 (reference value: 489.44 +/- 4.18 mg/dl); type: functional; details: time 14 day
[11] = system: Rattus norvegicus; assay: Anti-diabetic activity in STZ-induced diabetic Sprague-Dawley rat model assessed as reduction in blood glucose level at 9 mg/kg, ip measured at day 21 (reference value: 503.09 +/- 4.15 mg/dl); type: functional; details: time 21 day
[12] = system: Rattus norvegicus; assay: Anti-diabetic activity in STZ-induced diabetic Sprague-Dawley rat model assessed as reduction in blood glucose level at 9 mg/kg, ip measured at day 28 (reference value: 501.71 +/- 3.91 mg/dl); type: functional; details: time 28 day
[13] = system: Rattus norvegicus; assay: Anti-diabetic activity in STZ-induced diabetic Sprague-Dawley rat model assessed as increase in body weight at 9 mg/kg, ip measured at day 1; type: functional, organism-based; details: time 1.0 day
[14] = system: Rattus norvegicus; assay: Anti-diabetic activity in STZ-induced diabetic Sprague-Dawley rat model assessed as increase in body weight at 9 mg/kg, ip measured at day 14; type: functional, organism-based; details: time 14.0 day
[15] = system: Rattus norvegicus; assay: Anti-diabetic activity in STZ-induced diabetic Sprague-Dawley rat model assessed as increase in body weight at 9 mg/kg, ip measured at day 28; type: functional, organism-based; details: time 28.0 day
[16] = system: Rattus norvegicus; assay: Anti-diabetic activity in STZ-induced diabetic Sprague-Dawley rat model assessed as reduction in cholesterol level in plasma at 9 mg/kg, ip (reference value: 218 +/- 4.41 mg/dl); type: functional
[17] = system: Rattus norvegicus; assay: Anti-diabetic activity in STZ-induced diabetic Sprague-Dawley rat model assessed as reduction in TG level in plasma at 9 mg/kg, ip (reference value: 226.19 +/- 3.97 mg/dl); type: functional
[18] = system: Rattus norvegicus; assay: Anti-diabetic activity in STZ-induced diabetic Sprague-Dawley rat model assessed as reduction in LDL level in plasma at 9 mg/kg, ip (reference value: 138.19 +/- 3.67 mg/dl); type: functional
[19] = system: Rattus norvegicus; assay: Anti-diabetic activity in STZ-induced diabetic Sprague-Dawley rat model assessed as reduction in HDL level in plasma at 9 mg/kg, ip (reference value: 21.09 +/- 1.71 mg/dl); type: functional
[20] = species on record: Homo sapiens; assay: Competitive inhibition of alpha-glucosidase (unknown origin) […] using p-nitrophenyl glucopyranoside as substrate assessed as increase in Km with constant Vmax upto 180 uM using varying concentrations of substrate measured for 20 mins by Lineweaver-Burk plot analysis
[21] = Inhibition of alpha-glucosidase (unknown origin) using p-nitrophenyl glucopyranoside as substrate assessed as inhibition constant by Lineweaver-Burk plot analysis; design: species or system Homo sapiens
[22] = molecular target: T1, Acetylcholinesterase; assay: Mixed type inhibition of AChE (unknown origin) using […] assessed as effect on Vmax and Km at 1.95 to 7.8 uM by Lineweaver-Burk plot analysis; details: dose 1.95-7.8 µM
[23] = molecular target: T1, Acetylcholinesterase; assay: Inhibition of AChE (unknown origin) using […] assessed as inhibition constant by Lineweaver-Burk plot analysis

SMILES	IC50 [1]	IC50 [2]	IC50 [3]	IC50 [4]	IC50 [5]	Activity [6]	Activity [7]	Activity [8]	Activity [9]	Activity [10]	Activity [11]	Activity [12]	Activity [13]	Activity [14]	Activity [15]	Activity [16]	Activity [17]	Activity [18]	Activity [19]	also measured
CCOC(=O)C1=C(Nc2ccc(F)cc2)CC(c2ccc(Cl)cc2)N(c2ccc(F)cc2)C1c1ccc(Cl)cc1 (stereo not drawn)	1320 nM	461 nM	291 nM	916 nM	1020 nM	Non-Toxic	Active	498.7 mg/dL	427.82 mg/dL	349.78 mg/dL	244.27 mg/dL	167.81 mg/dL	Active	Active	Active	87.96 mg/dL	104.2 mg/dL	61.39 mg/dL	28.09 mg/dL	
Cc1c(C)c2c(c(C)c1O)CCC(C)(C(=O)O)O2 (stereo not drawn) [TROLOX]		28 nM																		
CCOC(=O)C1=C(Nc2ccccc2)CC(c2ccc(F)cc2)N(c2ccccc2)C1c1ccc(F)cc1 (stereo not drawn)	1050 nM	216 nM	473 nM	1360 nM	1280 nM															
CCOC(=O)C1=C(Nc2cccc(F)c2)CC(c2ccc(F)cc2)N(c2cccc(F)c2)C1c1ccc(F)cc1 (stereo not drawn)	1100 nM	519 nM	367 nM	1420 nM	1990 nM															
C[C@H]1O[C@H](O[C@H]2[C@H](O)[C@@H](O)[C@@H](O[C@H]3[C@H](O)[C@@H](O)C(O)O[C@@H]3CO)O[C@@H]2CO)[C@H](O)[C@@H](O)[C@@H]1N[C@H]1C=C(CO)[C@@H](O)[C@H](O)[C@H]1O (stereo partly drawn) [ACARBOSE]			28700 nM																	
CCOC(=O)C1=C(Nc2ccc(F)cc2)CC(c2ccc(C(F)(F)F)cc2)N(c2ccc(F)cc2)C1c1ccc(C(F)(F)F)cc1 (stereo not drawn)	633 nM	167 nM	176 nM	932 nM	1020 nM	Non-Toxic	Active	497.98 mg/dL	417.55 mg/dL	320.81 mg/dL	231.77 mg/dL	138.56 mg/dL	Active	Active	Active	75.05 mg/dL	91.96 mg/dL	47.51 mg/dL	33.51 mg/dL	inhibition [20]: Active; Ki [21]: 117000 nM
CCOC(=O)C1=C(Nc2ccc(F)cc2)CC(c2ccc(F)cc2)N(c2ccc(F)cc2)C1c1ccc(F)cc1 (stereo not drawn)	691 nM and 690 nM	22 nM and 20 nM	251 nM	774 nM	739 nM	Non-Toxic	Active	501.12 mg/dL	419.93 mg/dL	341.51 mg/dL	256.71 mg/dL	159.45 mg/dL	Active	Active	Active	91.16 mg/dL	97.65 mg/dL	59.16 mg/dL	27.73 mg/dL	inhibition [22]: Active; Ki [23]: 2050 nM
CCOC(=O)C1=C(Nc2ccc(F)cc2)CC(c2cccc(F)c2)N(c2ccc(F)cc2)C1c1cccc(F)c1 (stereo not drawn)	950 nM	562 nM	457 nM	1120 nM	1330 nM															
CCOC(=O)C1=C(Nc2cccc(F)c2)CC(c2ccc(Cl)cc2)N(c2cccc(F)c2)C1c1ccc(Cl)cc1 (stereo not drawn)	983 nM	712 nM	384 nM	1270 nM	1700 nM															
O=C1O[C@H]([C@@H](O)CO)C(O)=C1O [ASCORBIC ACID]	640 nM																			
CCOC(=O)C1=C(Nc2cccc(F)c2)CC(c2ccc(C(F)(F)F)cc2)N(c2cccc(F)c2)C1c1ccc(C(F)(F)F)cc1 (stereo not drawn)	814 nM	629 nM	220 nM	1190 nM	1270 nM	Non-Toxic	Active	495.39 mg/dL	422.69 mg/dL	334.29 mg/dL	240.19 mg/dL	152.61 mg/dL	Active	Active	Active	78.67 mg/dL	93.71 mg/dL	51.22 mg/dL	31.06 mg/dL	
